Measurements: article PMC10709440, “High-throughput ligand profile characterization in novel cell lines expressing seven heterologous insect olfactory receptors for the detection of volatile plant biomarkers” (Scientific Reports, 2023)

Key:
Drosophila OR85b = biological target: T1, Drosophila OR85b (Drosophila melanogaster, UniProt Q9VHQ7); experiment: Calcium ion fluorescence (GCaMP6) assay, OR85b stable HEK293 cell line; type: cell-based; details: for Average response: VUAA1-normalized response, mean of biological replicates; for DF norm AVERAGE OR85b: threshold 0.05, below shown as 0
T1 construct: expressed in transfected cells
T1 sequence (Q9VHQ7 1-390): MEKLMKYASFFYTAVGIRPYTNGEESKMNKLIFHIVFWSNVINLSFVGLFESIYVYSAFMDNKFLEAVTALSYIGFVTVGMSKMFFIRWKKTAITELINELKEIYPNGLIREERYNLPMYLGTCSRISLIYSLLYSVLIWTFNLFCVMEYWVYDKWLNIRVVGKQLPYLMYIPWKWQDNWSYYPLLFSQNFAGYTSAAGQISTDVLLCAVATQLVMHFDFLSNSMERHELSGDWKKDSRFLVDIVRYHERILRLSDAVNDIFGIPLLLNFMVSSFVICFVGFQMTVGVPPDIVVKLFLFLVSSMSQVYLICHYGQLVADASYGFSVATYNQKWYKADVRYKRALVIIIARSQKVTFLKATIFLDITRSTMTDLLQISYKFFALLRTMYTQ
T1 sequence (Q9VNB5 1-486 partner): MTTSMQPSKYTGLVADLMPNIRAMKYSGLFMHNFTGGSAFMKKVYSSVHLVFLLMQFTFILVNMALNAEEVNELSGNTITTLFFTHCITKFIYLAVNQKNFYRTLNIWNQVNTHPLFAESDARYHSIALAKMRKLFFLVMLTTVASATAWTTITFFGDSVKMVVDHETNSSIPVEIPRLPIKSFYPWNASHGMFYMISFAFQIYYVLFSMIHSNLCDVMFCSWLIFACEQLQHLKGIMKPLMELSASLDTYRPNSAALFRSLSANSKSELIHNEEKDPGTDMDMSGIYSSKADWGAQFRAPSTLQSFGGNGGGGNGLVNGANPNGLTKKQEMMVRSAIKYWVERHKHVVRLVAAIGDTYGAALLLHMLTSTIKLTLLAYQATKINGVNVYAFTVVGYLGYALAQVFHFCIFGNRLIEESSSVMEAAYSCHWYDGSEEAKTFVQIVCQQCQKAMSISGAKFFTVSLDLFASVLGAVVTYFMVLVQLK
Outline: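 HEK293 lines stably expressing each Drosophila OR with GCaMP6, doxycycline-induced (1 μg/mL) 48 or 72 h. Fluorescence recorded 5 s baseline then 30 s after VOC injection at pH 7.3; ΔF=(FMAX−F0)/F0, normalized to 50 µM VUAA1 response per line, triplicate wells averaged; concentration series 0.01–100 μM.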

OR10a = test system: OR10a; parameters: method as in earlier work; details: DoOR database value, OR10a; ref DoOR; cited from earlier work
OR13a = test system: OR13a; parameters: method as in earlier work; details: DoOR database value, OR13a; ref DoOR; cited from earlier work
OR47a = test system: OR47a; parameters: method as in earlier work; details: DoOR database value, OR47a; ref DoOR; cited from earlier work
OR49b = test system: OR49b; parameters: method as in earlier work; details: DoOR database value, OR49b; ref DoOR; cited from earlier work
OR85b = test system: OR85b; parameters: method as in earlier work; details: DoOR database value, OR85b; ref DoOR; cited from earlier work
OR98a = test system: OR98a; parameters: method as in earlier work; details: DoOR database value, OR98a; ref DoOR; cited from earlier work
[1] = HEK293, read-out: OR85b Average response (VUAA1-normalized)

CCCCCOC(C)=O [pentyl acetate]
activation at 1 µM (Drosophila OR85b; [1]): 2%
activation at 10 µM (Drosophila OR85b; [1]): 4%
activation at 100 µM (Drosophila OR85b; [1]): 14%
OR85b response (VUAA1-normalized) at 1 μM (Drosophila OR85b; OR85b cell line, VOC concentration 1 μM): 0.00
OR85b response (VUAA1-normalized) at 10 μM (Drosophila OR85b; OR85b cell line, VOC concentration 10 μM): 0.00
OR85b response (VUAA1-normalized) at 100 μM (Drosophila OR85b; OR85b cell line, VOC concentration 100 μM): 0.14
Average response (Drosophila OR85b; OR85b cell line, cc. 1 µM): 0.0185
Average response (Drosophila OR85b; OR85b cell line, cc. 10 µM): 0.04
Average response (Drosophila OR85b; OR85b cell line, cc. 100 µM): 0.14
DF norm AVERAGE OR85b (Drosophila OR85b; ligand concentration 1 (unit not given)): 0
DF norm AVERAGE OR85b (Drosophila OR85b; ligand concentration 10 (unit not given)): 0
DF norm AVERAGE OR85b (Drosophila OR85b; ligand concentration 100 (unit not given)): 0.1368
OR10a DoOR response (OR10a): 0.03
OR13a DoOR response (OR13a): 0.39
OR47a DoOR response (OR47a): 0.82
OR49b DoOR response (OR49b): 0.022
OR85b DoOR response (OR85b): 0.56
OR98a DoOR response (OR98a): 0.64
